Experimental findings from patent US20020138123A1, “Medical electrical leads and indwelling catheters with enhanced biocompatibility and biostability” (Medtronic, Inc., priority 1998, published 2002) are described below.

The structures appear in SMILES notation.

Common to all, as to format: cell-based
Assay [1] relates to human Mo/MØs. As to the kind of experiment: Morphology of Mo/MØ monolayers on polyetherurethane cultured with DSP (OM, SEM). Particulars: human Mo/MØs on PEU cultured with DSP in media, versus standard media.
Method: Blood was anticoagulated with 2 units/ml sodium heparin (Upjohn Co., Kalamazoo, Mich.). Mononuclear cells (lymphocytes, monocytes) were isolated within 15 minutes by a one-step density gradient centrifugation procedure using Isopaque-1077 (a density gradient solution) according to a modified Boyum's method (Boyum et al., Blood Separation and Plasma Fractionation, 217-239, Wiley-Liss, Inc. (1991)). The mononuclear cells were harvested and washed twice with cold Hanks balanced salt solution (HBSS) without Ca^2+ and Mg^2+ to minimize cell aggregation. The cells were then resuspended in standard media (RPMI-1640, 10% Fetal bovine serum, 0.2M L-glutamine, 10 Ul/ml Penicillin-G, and 0.1 mg/ml Streptomycin). The cell suspension was seeded into several plastic tissue culture flasks and incubated in the presence of 5% CO2 at 37° C. for 1 hour (Ackerman et al., J. Immunol., 20, 1372-1374 (1978)). After this incubation, adherent (monocytes) were gently scrapped from the surface and resuspended in standard media. Nonadherent cells (lymphocytes) contained in the supernatant were recovered into sterile tubes, and the remaining nonadherent cells washed off with cold HBSS. […] The polymer surfaces were also evaluated using SEM following the 10-day treatment with FeCl2. […]
Assay [2] has as its system IL-8. As to the kind of experiment: Cytokine analysis, in vitro expression of IL-8. Particulars: human primary monocytes; DEX 2.5, 0.25, 0.025 μg/ml; methotrexate 50, 5, 0.5 μg/ml; dose- and incubation time-dependent.
Method: (§1) In order to assess the in vitro expression of IL-1α and IL-8, human primary monocytes were incubated with various concentrations of DEX (2.5, 0.25, and 0.025 μg/ml) and methotrexate (50, 5, and 0.5 μg/ml).
Assay [3] concerns IL-1α. Kind of assay: Cytokine analysis, in vitro expression of IL-1α. The note with it: human primary monocytes; DEX 2.5, 0.25, 0.025 μg/ml; methotrexate 50, 5, 0.5 μg/ml; dose- and incubation time-dependent.
Method: as §1

For `C[C@@H]1C[C@H]2[C@@H]3CCC4=CC(=O)C=C[C@]4(C)[C@@]3(F)[C@@H](O)C[C@]2(C)[C@@]1(O)C(=O)COP(=O)(O)O` [DSP, dexamethasone sodium phosphate], the “cell size of Mo/MØ monolayers (OM)” value in assay [1] is reported as “no increase in cell size”.

`CN(Cc1cnc2nc(N)nc(N)c2n1)c1ccc(C(=O)N[C@@H](CCC(=O)O)C(=O)O)cc1` [methotrexate]: the IL-8 inhibition result in assay [2] is “higher rate of IL-1 and IL-8 inhibition”. Moreover, the IL-1 inhibition result in assay [3] is “higher rate of IL-1 and IL-8 inhibition”.
